Measurements from patent publication US9814696B2, “Use of coumarin derivatives for the preparation of drugs for treating skin diseases” (UNIVERSITE PIERRE ET MARIE CURIE (PARIS 6), priority 2011, dated 2017).

Tests used:
Type in all cases: biochemical
KLK7 = KLK7 (Homo sapiens, UniProt P49862); experiment: KLK7 enzyme inhibition assay, fluorogenic substrate Suc-Leu-Leu-Val-Tyr-AMC; conditions: for IC50: Table A, read-out: IC50 (μM) KLK7; for selective activity against enzyme: KLK7: Table B, among KLK5, KLK7 and KLK14
Chain of KLK7 (P49862 30-253): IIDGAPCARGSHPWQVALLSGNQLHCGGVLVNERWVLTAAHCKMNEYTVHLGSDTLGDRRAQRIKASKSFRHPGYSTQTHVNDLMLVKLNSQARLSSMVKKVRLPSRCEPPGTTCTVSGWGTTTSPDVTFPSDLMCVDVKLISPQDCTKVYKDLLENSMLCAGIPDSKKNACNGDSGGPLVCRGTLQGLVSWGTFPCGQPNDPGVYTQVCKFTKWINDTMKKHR
Method: (§1) Kallikreins KLK5, KLK7 and KLK14 activities were determined by monitoring the hydrolysis of the appropriate fluorogenic substrate (λexc=355, λem=460 nm) for 15 min at 37° C. in the presence of the untreated kallikrein (control) or kallikrein that had been incubated with a test compound. Substrate and compounds were previously dissolved in DMSO, with the final solvent concentration kept constant at 2% (v/v) (KLK 5 and 14), and 4% (v/v) (KLK7). The composition of the activity buffers (pH 8.0) was 100 mM Tris-HCl, 150 mM NaCl, 0.01% (v/v) Tween 20 for the KLK5 assay, and 100 mM Tris-HCl, 1M NaCl, 0.01% (v/v) Tween 20 in the KLK 7 and 14 assays. The final concentrations were 0.6 nM (KLK5) and 100 μM (Boc-Val-Pro-Arg-AMC) (KLK5 assay), 8 nM (KLK7) and 40 μM (Suc-Leu-Leu-Val-Tyr-AMC, AMC: 7-amino-4-methyl-coumarin) (KLK7 assay), and 0.17 nM (KLK14) and 10 μM (Boc-Val-Pro-Arg-AMC) (KLK14 assay). Using the appropriate substrate, the coumarinic compounds (0.01-100 μM) were tested in duplicate for each inhibitor concentration to detect their inhibitory potential. The enzyme and the inhibitors were incubated for 15 min before the determination of the enzyme activity. Initial rates determined in control experiments (V0) were considered to be 100% of the peptidase activity; initial rates below 100% were considered to be inhibitions. The inhibitory activity of compounds was expressed as IC50 (inhibitor concentrations giving 50% inhibition). The values of IC50 were calculated by fitting the experimental data to the equation: % Inhibition=100×(1−Vi/V0)=100[I]0/(IC50+[I]0), or equation: % Inhibition=100[I]0^nH/(IC50^nH+[I]0^nH),nH is the Hill number.
(§2) The tests were realized at 37° C. after 15 min of incubation at pH 8.

KLK5 = target: T1, KLK5 (Homo sapiens, UniProt Q9Y337); experiment: KLK5 enzyme inhibition assay, fluorogenic substrate Boc-Val-Pro-Arg-AMC; conditions: for inhibition at 50 µM / IC50 / inhibition at 100 µM: 37° C., 15 min of incubation, pH 8; for IC50: Table A, read-out: IC50 (μM) KLK5; for selective activity against enzyme: KLK5: Table B, among KLK5, KLK7 and KLK14
T1 sequence (Q9Y337 23-293): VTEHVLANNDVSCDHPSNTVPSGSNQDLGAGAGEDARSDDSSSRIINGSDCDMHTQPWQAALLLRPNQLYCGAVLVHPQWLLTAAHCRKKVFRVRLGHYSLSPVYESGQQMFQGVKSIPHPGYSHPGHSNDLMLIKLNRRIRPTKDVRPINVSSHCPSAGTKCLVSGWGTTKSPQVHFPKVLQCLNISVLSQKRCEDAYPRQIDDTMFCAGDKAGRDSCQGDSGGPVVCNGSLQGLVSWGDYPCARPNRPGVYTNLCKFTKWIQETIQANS
Method: as §1, §2

KLK14 = target: T2, KLK14 (Homo sapiens, UniProt Q9P0G3); experiment: KLK14 enzyme inhibition assay, fluorogenic substrate Boc-Val-Pro-Arg-AMC; conditions: for inhibition at 50 µM / inhibition at 100 µM / IC50: 37° C., 15 min of incubation, pH 8; for IC50: Table A, read-out: IC50 (μM) KLK14
T2 sequence (Q9P0G3 25-251): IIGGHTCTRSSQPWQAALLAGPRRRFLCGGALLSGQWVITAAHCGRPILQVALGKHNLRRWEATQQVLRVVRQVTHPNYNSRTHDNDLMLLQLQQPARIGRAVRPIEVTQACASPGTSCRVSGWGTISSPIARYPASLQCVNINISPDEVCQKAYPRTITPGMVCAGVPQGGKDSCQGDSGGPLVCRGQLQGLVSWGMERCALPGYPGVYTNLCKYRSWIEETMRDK
Method: as §1, §2

[1] = 37° C., 15 min of incubation, pH 8

SMILES	IC50 (KLK7; [1]) [µM]	IC50 (KLK5) [µM]	inhibition at 100 µM (KLK14) [%]	selective activity against enzyme: KLK7 (KLK7)	other results
O=C(Oc1ccccc1)c1cc2cc(CO)ccc2oc1=O [MH30]	33.2 ± 1.4	–	–	–	inhibition at 50 µM (KLK5): 25%; inhibition at 50 µM (KLK14): 32%
O=C(Oc1cc(Cl)cc(Cl)c1)c1cc2cc(CCl)ccc2oc1=O [LP75]	0.136 ± 0.012	80 ± 8	–	–	–
COC(=O)c1ccccc1OC(=O)c1cc2cc(COC(C)=O)ccc2oc1=O [IK8]	64.3 ± 2.7	~40	64	–	–
CC(=O)OCc1ccc2oc(=O)c(C(=O)Oc3cccc(F)c3)cc2c1 [IK10]	–	–	–	–	inhibition at 50 µM (KLK5): 23%; selective activity against enzyme: KLK5 (KLK5): KLK5
O=C(Oc1ccccc1I)c1cc2cc(CCl)ccc2oc1=O [LP15]	1.9 ± 0.1	–	35	–	–
O=C(Oc1ccccc1)c1cc2cc(O)c(O)cc2oc1=O [MH22]	–	–	–	–	inhibition at 50 µM (KLK7; 50 μM, 37° C., 15 min of incubation, pH 8): 100%; inhibition at 50 µM (KLK5): 32%; inhibition at 50 µM (KLK14): 85%
CC(=O)NCc1ccc2oc(=O)c(C(=O)Oc3cccc(Br)c3)cc2c1 [IK49]	–	–	–	KLK7	inhibition at 10 µM (KLK7; [1]): 54%
CCOC(=O)c1cc2cc(C)ccc2oc1=O [Compound D5]	–	–	38	–	inhibition at 100 µM (KLK7; [1]): 61%; inhibition at 100 µM (KLK5): 90%
CS(=O)(=O)NCc1ccc2oc(=O)c(C(=O)Oc3cccc(Cl)c3)cc2c1 [MH24]	33.2 ± 1.4	–	–	–	inhibition at 50 µM (KLK14): 42%
COC(=O)c1ccccc1OC(=O)c1cc2cc(CCl)ccc2oc1=O [IK1]	2.7 ± 0.1	26.3 ± 1.4	–	–	IC50 (KLK14): 38 ± 5 µM
O=C(Oc1cc(F)ccc1F)c1cc2ccccc2oc1=O [CFL7]	–	–	33	–	inhibition at 100 µM (KLK7; [1]): 33%
CC(=O)OCc1ccc2oc(=O)c(C(=O)Oc3ccccc3I)cc2c1 [SMB28, 2-iodophenyl 6-acetoxymethyl-2-oxo-2H-1-benzopyran-3-carboxylate]	82.2 ± 13.2	–	–	KLK7	–
O=C(Oc1ccccc1[N+](=O)[O-])c1cc2cc(CCl)ccc2oc1=O [LP60]	1.44 ± 0.02	112 ± 6	46	–	–
O=C(Oc1cncc(Cl)c1)c1cc2cc(CCl)ccc2oc1=O [LP2]	0.128 ± 0.03	–	–	KLK7	–
O=C(Oc1c(Cl)cccc1Cl)c1cc2cc(CCl)ccc2oc1=O [LP72]	0.495 ± 0.037	59 ± 9	50	KLK7	–
O=C(Oc1cc(F)ccc1Br)c1cc2cc(CCl)ccc2oc1=O [CFL15]	0.352 ± 0.055	–	45	KLK7	inhibition at 100 µM (KLK5): 47%
NCc1ccc2oc(=O)c(C(=O)Oc3ccccc3)cc2c1 [LP71]	–	182 ± 14	–	–	–
O=C(Oc1cc([N+](=O)[O-])ccc1[N+](=O)[O-])c1cc2cc(CCl)ccc2oc1=O [CFL21]	–	121	43	–	inhibition at 100 µM (KLK7; [1]): 22%; selective activity against enzyme: KLK14 (KLK14; Table B, among KLK5, KLK7 and KLK14): KLK14
CC(=O)c1cc2cc(C)ccc2oc1=O [Compound D9]	–	–	40	–	inhibition at 100 µM (KLK5): 80%; selective activity against enzyme: KLK5 (KLK5): KLK5
CCOC(=O)c1cc2cc(COC(C)=O)ccc2oc1=O [LP43]	–	–	49	–	inhibition at 100 µM (KLK7; [1]): 30%; inhibition at 100 µM (KLK5): 49%
CC(=O)NCc1ccc2oc(=O)c(C(=O)Oc3cccc(Cl)c3)cc2c1 [IK53]	–	–	–	KLK7	inhibition at 10 µM (KLK7; [1]): 54%
CC(=O)OCc1ccc2oc(=O)c(C(=O)Oc3ccccc3Br)cc2c1 [SMB26]	–	–	–	KLK7	inhibition at 10 µM (KLK7; [1]): 52%
O=C(O)c1ccccc1OC(=O)c1cc2cc(CCl)ccc2oc1=O [IK11]	–	–	–	–	inhibition at 100 µM (KLK7; [1]): 63%; inhibition at 50 µM (KLK5): 37.4%; IC50 (KLK14): 43 ± 4 µM
